# Measured values reported in patent US10953029B2, “4′-Substituted nucleoside reverse transcriptase inhibitors and preparations thereof” (Merck Sharp & Dohme Corp., priority 2015, dated 2021).
# Like-named read-outs stand apart in the source and are kept apart here.
# Key:
# [1] = test system: wild-type HIV-1-GFP virus; assay: Antiviral Persistence in Human Peripheral Blood Mononuclear Cells (PBMC); type: cell-based; conditions: Human immunodeficiency virus 1, PBMC
# Procedure: PBMCs were obtained from Biological Specialty Corporation, activated with 5 μg/ml PHA-P (Sigma L1668) for 72 hrs, and then washed with fresh medium. Following activation, PBMCs were cultured in media containing 10 IU/ml IL-2 (Roche 11011456001). Cells were treated with a titration of compound for 6 or 24 hrs and washed with fresh medium. To evaluate persistence of antiviral activity following wash-out, PBMCs were maintained for either 24 h or 72 h and then infected by adding wild-type HIV-1-GFP virus (17 μL/well) to the plates and incubating at 37° C./5% CO2/90% relative humidity. Infected cells were quantified at 24 h post-infection by counting the number of green cells in each well using an Acumen eX3 scanner. EC50 values in Table 3 were calculated by non-linear 4-parameter curve fitting.
# The antiviral persistence assay is meant to assess for the persistence of antiviral activity upon removal of the nucleoside. […] The publication AIDS Research and Therapy, 2009, 6:5, highlights the value of antiviral persistence.
# HIV-1 (H9IIIB virus) = assay: Viking Assay: antiviral potency in a multiple round HIV-1 infection assay (MT4-GFP cells); type: cell-based; conditions: Human immunodeficiency virus 1, 10% normal human serum, read-out: Viking, EC50 (10% NHS)
# Procedure: Assessing antiviral potency in a multiple round HIV-1 infection assay. HIV-1 replication was monitored using MT4-gag-GFP clone D3 (hereafter designate MT4-GFP), which are MT-4 cells modified to harbor a GFP reporter gene, the expression of which is dependent on the HIV-1 expressed proteins tat and rev. Productive infection of an MT4-GFP cell with HIV-1 results in GFP expression approximately 24 h post-infection.
# MT4-GFP cells were maintained at 37° C./5% CO2/90% relative humidity in RPMI 1640 supplemented with 10% fetal bovine serum, 100 U/mL penicillin/streptomycin, and 400 μg/mL G418 to maintain the reporter gene. For infections, MT4-GFP cells were placed in the same medium lacking G418 and infected overnight with H9IIIB virus at an approximate multiplicity of infection of 0.01 in the same incubation conditions. Cells were then washed and re-suspended in either RPMI 1640 containing 10% or 50% normal human serum at 1.6×10^5 cells/mL (10% or 50% NHS conditions) or in 100% normal human serum at 2×10^5 cells/mL (100% NHS conditions). […]
# Infected cells were quantified at two time points, ˜48 h and ˜72 h post-infection, by counting the number of green cells in each well using an Acumen eX3 scanner. […] Inhibition of R0 is calculated for each well, and EC50s determined by non-linear 4-parameter curve fitting.
# [2] = biological target: T1, adenosine deaminase (ADA) type 1 (Homo sapiens, UniProt P00813); assay: Adenosine Deaminase (ADA) Half-Life; type: in vitro ADME; conditions: human ADA type 1 (adenosine deaminase) in Tris-HCl buffer, time for 50% conversion to inosine product, Tris-HCl buffer pH 7.5, 40° C., LCMS
# T1 sequence (P00813 1-363): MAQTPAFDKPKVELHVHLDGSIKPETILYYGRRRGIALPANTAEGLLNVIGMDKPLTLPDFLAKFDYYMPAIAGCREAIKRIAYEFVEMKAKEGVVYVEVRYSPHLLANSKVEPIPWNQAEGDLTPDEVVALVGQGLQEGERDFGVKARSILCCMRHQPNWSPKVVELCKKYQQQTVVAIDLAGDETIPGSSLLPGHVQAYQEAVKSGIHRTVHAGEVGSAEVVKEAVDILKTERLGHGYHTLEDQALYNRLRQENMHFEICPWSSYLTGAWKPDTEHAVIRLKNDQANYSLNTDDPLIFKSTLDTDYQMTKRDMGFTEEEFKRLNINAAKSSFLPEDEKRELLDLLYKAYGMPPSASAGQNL
# Procedure: The data in Table 4 was generated by testing the reactivity of the substrate compound with human ADA type 1 in the presence of Tris-HCl buffer (pH 7.5) at 40° C. and monitoring by LCMS for consumption of starting material. The time necessary for 50% conversion to the corresponding inosine product is noted as the T1/2 in Table 4. It is known that deamination by adenosine deaminase decreases the therapeutic potential of adenosine-like nucleoside inhibitors especially in vivo (see references below). […] It is possible that compounds that are more resistant to ADA will have better pharmacokinetic properties.
# [3] = test system: wild-type and multi-drug resistant HIV-1 strains; conditions: cited from earlier work
# HIV-1 RT enzyme = biological target: T2, HIV-1 RT enzyme (Human immunodeficiency virus type 1 group M subtype B, UniProt P04585); assay: RT Polymerase Assay; type: biochemical
# T2 construct: Full-length wild-type and 2 mutant RT proteins were expressed in Escherichia coli BL21(DE3) cells and purified; made in house; host or cells: Escherichia coli BL21(DE3)
# Procedure: Full-length wild-type and 2 mutant RT proteins were expressed in Escherichia coli BL21(DE3) cells and purified. Briefly, the heterodimeric nucleic acid substrate used in the HIV-1 RT polymerase reactions was generated by annealing biotinylated DNA primer to a 500 nucleotide RNA template. The HIV-1 RT enzyme (final concentration of 50 pM) was combined with an inhibitor compound or DMSO (10% DMSO in the final reaction mixture) in assay buffer (62.5 mM Tris-HCl, pH 7.8, 1.25 mM dithiothreitol, 7.5 mM MgCl2, 100 mM KCl, 0.03% CHAPS, 0.125 mM EGTA). This mixture was pre-incubated for 30 minutes at room temperature in microtiter plates. The polymerization reaction was initiated by the addition of template/primer substrate (final concentration: 16.6 nM) and dNTPs (final concentration: 2 μM dCTP, dGTP, dATP, and 66.6 nM Ru-dUTP). After 90 min of incubation at 37° C., reactions were quenched by the addition of EDTA (25 mM). The resulting mixture was incubated for an additional 5 minutes at room temperature followed by transferring the solution (50 μL) to blocked avidin plate from Meso Scale Discovery (MSD). The mixtures were incubated at room temperature for 60 min prior to the quantification of the reaction product via an ECL 6000 imager instrument.
half-life [2] [h],SMILES,"EC50 ([1]; 24 h, read-out: EC50 24 h) [nM]","EC50 ([1]; 72 h, read-out: EC50 72 h) [nM]",EC50 (HIV-1 (H9IIIB virus)) [nM],further results
–,"Cc1cn([C@H]2C[C@H](N=[N+]=[N-])[C@@H](CO)O2)c(=O)[nH]c1=O [AZT, 3′-azido-3′-deoxythymidine]",19,68,37,–
< 0.167,"Nc1ncnc2c1ncn2[C@H]1C[C@H](O)[C@@H](CO)O1 [Deoxy- adenosine, deoxyadenosine]",–,–,–,–
< 1,"C#C[C@]1(CO)O[C@@H](n2cnc3c(N)ncnc32)C[C@@H]1O [EDA, (2R,3S,5R)-5-(6-amino-9H-purin-9-yl)-2-ethynyl-2-(hydroxymethyl)tetrahydrofuran-3-ol]",–,–,–,–
–,"C#C[C@]1(CO)O[C@@H](n2cnc3c(N)nc(F)nc32)C[C@@H]1O [EFdA, (2R,3S,5R)-5-(6-amino-2-fluoro-9H-purin-9-yl)-2-ethynyl-2-(hydroxymethyl)tetrahydrofuran-3-ol]",–,–,–,antiviral activity [3]: potent antiviral activity
–,"C#C[C@]1(CO)O[C@@H](n2cc(F)c3c(N)nc(Cl)nc32)C[C@@H]1O [Example 1, (2R,3S,5R)-5-(4-amino-2-chloro-5-fluoro-7H-pyrrolo[2,3-d]pyrimidin-7-yl)-2-ethynyl-2-(hydroxymethyl)tetrahydrofuran-3-ol]",0.38,3.8,1.2,half-life ([2]; value given as symbol): > 240 h
–,"C#C[C@]1(COP(=O)(O)OP(=O)(O)OP(=O)(O)O)O[C@@H](n2cc(F)c3c(N)nc(Cl)nc32)C[C@@H]1O [Example 2, ammonium ((2R,3S,5R)-5-(4-amino-2-chloro-5-fluoro-7H-pyrrolo[2,3-d]pyrimidin-7-yl)-2-ethynyl-3-hydroxytetrahydrofuran-2-yl)methyl triphosphate]",–,–,–,IC50 (HIV-1 RT enzyme): 490 nM
